Test results taken from patent US20100273652A1 (priority 2009, published 2010).

Experiments:
Type in all cases: cell-based
[1] = tested on: DON/Acetyl-DON production of Fusarium graminearum
Fusarium proliferatum = experiment: Growth inhibition of Fusarium proliferatum (OD620); settings: OD620 at start and after 5 days
Fusarium graminearum = tested on: Fusarium graminearum
[2] = tested on: fumonisin FB1 production of Fusarium proliferatum; experiment: Inhibition of fumonisin FB1 production of Fusarium proliferatum; settings: 5 days, 20° C., vs control without compound

SMILES | % inhibition at 50 μM DON/AcDON [1] | % inhibition at 50 μM Fusarium proliferatum (growth) (Fusarium proliferatum) | % inhibition at 50 μM Fusarium graminearum (growth) (Fusarium graminearum) | % inhibition at 50 μM FB1 [2]
C=C=Cn1c(-c2ccncc2)c(-c2ccc(F)cc2)c2ncccc21 [Example 15] | 44% | 37% | 33% | –
Nc1cc(-c2[nH]c3cccnc3c2-c2ccc(F)cc2)ccn1 [Example 4] | – | 31% | – | 45%
